According to article PMC10636171 (Cell Death & Disease, 2023):

Tests used:
ALK = biological target: T1, ALK (Homo sapiens, UniProt Q9UM73); test: HTRF/ADP-Glo kinase selectivity panel; assay type: biochemical; conditions: 500 nM, read-out: 1D228(%inhibition)@500nM
T1 construct: purchased Invitrogen (c-Met, TRKA, TRKB, TRKC)
Method: (§1) The compound was serial diluted from 10 mM stock in DMSO, dilute the test compound to 0.1 mM (200 times the specified test concentration). 2 × ATP & Substrate solution and 2 × kinase & Metal solution were prepared using assay buffer; Transfer 25 nL compound to 384 assay plate by Echo 655; After centrifugation, add 2.5 μL 2 × kinase/metal ion solution 384 assay plate, and incubate at 25 °C for 10 min. 2 × XL665 & Antibody solution were prepared with detection buffer; 5 μL of Kinase Detection Reagent was added to the well, and incubated for 60 min at 25 °C; The fluorescence signals of 620 nm (Cryptate) and 665 nm (XL665) were read by microtiter plate reader; […]

EPHA1 = biological target: T2, EPHA1 (Homo sapiens, UniProt P21709); test: HTRF/ADP-Glo kinase selectivity panel; assay type: biochemical; conditions: 500 nM, read-out: 1D228(%inhibition)@500nM
T2 construct: purchased Invitrogen (c-Met, TRKA, TRKB, TRKC)
Method: as §1

EPHA6 = biological target: T3, EPHA6 (Homo sapiens, UniProt Q9UF33); test: HTRF/ADP-Glo kinase selectivity panel; assay type: biochemical; conditions: 500 nM, read-out: 1D228(%inhibition)@500nM
T3 construct: purchased Invitrogen (c-Met, TRKA, TRKB, TRKC)
Method: as §1

EPHB1 = biological target: T4, EPHB1 (Homo sapiens, UniProt P54762); test: HTRF/ADP-Glo kinase selectivity panel; assay type: biochemical; conditions: 500 nM, read-out: 1D228(%inhibition)@500nM
T4 construct: purchased Invitrogen (c-Met, TRKA, TRKB, TRKC)
Method: as §1

EPHB4 = biological target: T5, EPHB4 (Homo sapiens, UniProt P54760); test: HTRF/ADP-Glo kinase selectivity panel; assay type: biochemical; conditions: 500 nM, read-out: 1D228(%inhibition)@500nM
T5 construct: purchased Invitrogen (c-Met, TRKA, TRKB, TRKC)
Method: as §1

FER = biological target: T6, FER (Homo sapiens, UniProt P16591); test: HTRF/ADP-Glo kinase selectivity panel; assay type: biochemical; conditions: 500 nM, read-out: 1D228(%inhibition)@500nM
T6 construct: purchased Invitrogen (c-Met, TRKA, TRKB, TRKC)
Method: as §1

FGFR1 = biological target: T7, FGFR1 (Homo sapiens, UniProt P11362); test: HTRF/ADP-Glo kinase selectivity panel; assay type: biochemical; conditions: 500 nM, read-out: 1D228(%inhibition)@500nM
T7 construct: purchased Invitrogen (c-Met, TRKA, TRKB, TRKC)
Method: as §1

FGFR3 = biological target: T8, FGFR3 (Homo sapiens, UniProt P22607); test: HTRF/ADP-Glo kinase selectivity panel; assay type: biochemical; conditions: 500 nM, read-out: 1D228(%inhibition)@500nM
T8 construct: purchased Invitrogen (c-Met, TRKA, TRKB, TRKC)
Method: as §1

FYN [b] = biological target: T9, FYN [b] (Homo sapiens, UniProt P06241); test: HTRF/ADP-Glo kinase selectivity panel; assay type: biochemical; conditions: 500 nM, read-out: 1D228(%inhibition)@500nM
T9 construct: purchased Invitrogen (c-Met, TRKA, TRKB, TRKC)
Method: as §1

INSR = biological target: T10, INSR (Homo sapiens, UniProt P06213); test: HTRF/ADP-Glo kinase selectivity panel; assay type: biochemical; conditions: 500 nM, read-out: 1D228(%inhibition)@500nM
T10 construct: purchased Invitrogen (c-Met, TRKA, TRKB, TRKC)
Method: as §1

JAK1 = biological target: T11, JAK1 (Homo sapiens, UniProt P23458); test: HTRF/ADP-Glo kinase selectivity panel; assay type: biochemical; conditions: 500 nM, read-out: 1D228(%inhibition)@500nM
T11 construct: purchased Invitrogen (c-Met, TRKA, TRKB, TRKC)
Method: as §1

LYNa = biological target: T12, LYNa (Homo sapiens, UniProt P07948); test: HTRF/ADP-Glo kinase selectivity panel; assay type: biochemical; conditions: 500 nM, read-out: 1D228(%inhibition)@500nM
T12 construct: purchased Invitrogen (c-Met, TRKA, TRKB, TRKC)
Method: as §1

LYNb = biological target: T13, LYNb (Homo sapiens, UniProt P07948); test: HTRF/ADP-Glo kinase selectivity panel; assay type: biochemical; conditions: 500 nM, read-out: 1D228(%inhibition)@500nM
T13 construct: purchased Invitrogen (c-Met, TRKA, TRKB, TRKC)
Method: as §1

MUSK = biological target: T14, MUSK (Homo sapiens, UniProt O15146); test: HTRF/ADP-Glo kinase selectivity panel; assay type: biochemical; conditions: 500 nM, read-out: 1D228(%inhibition)@500nM
T14 construct: purchased Invitrogen (c-Met, TRKA, TRKB, TRKC)
Method: as §1

SRC = biological target: T15, SRC (Homo sapiens, UniProt P12931); test: HTRF/ADP-Glo kinase selectivity panel; assay type: biochemical; conditions: 500 nM, read-out: 1D228(%inhibition)@500nM
T15 construct: purchased Invitrogen (c-Met, TRKA, TRKB, TRKC)
Method: as §1

[1] = Liver microsomal stability assay; assay type: in vitro ADME; conditions: liver microsomes, pH 7.4
Method: The incubation system (including 0.1 M PH 7.4 phosphate buffer, NADPH generation system, UGT incubation system, 0.5 mg/mL liver microsomal protein and appropriate concentration of drug to be tested) was incubated in a water bath at 37 °C for […]. Each sample was incubated three times in parallel, and an equal volume of pre-chilled acetonitrile was added at preset reaction time points, such as 0, 5, 10, 15, 30 and 60 min. The reaction was terminated by the addition of acetonitrile. The remaining content of the prototype drug in the warm incubation solution was determined by HPLC, HPLC-MC and HPLC-MC/MC.

ASPC1 = test: CCK8 antiproliferative assay; assay type: cell-based; conditions: Homo sapiens; ASPC1, CCK8, 72 h; read-out: IC50, cell proliferation
Method: (§2) For cytotoxicity assay, the cells grown in the logarithmic phase were seeded into 96-well plates (7 × 10^3 cells/well) for 24 h, then exposed to different concentrations (10, 5, 1, 0.1, 0.01 and 0.001 μM) of the test compounds for 72 h. After attached cells were incubated with CCK8 (Sigma, USA) for another 1–4 h. Then the absorbance at 450 nm was measured using a multifunction microplate reader (Molecular Devices, Flex Station 3), and each experiment was performed at least in triplicate.

HS746T = test: CCK8 antiproliferative assay; assay type: cell-based; conditions: Homo sapiens; HS746T, CCK8, 72 h; read-out: IC50, cell proliferation
Method: as §2

MHCC97H = test: CCK8 antiproliferative assay; assay type: cell-based; conditions: Homo sapiens, CCK-8, 72 h, read-out: IC50, cell proliferation
Method: as §2

MKN45 = test: CCK8 antiproliferative assay; assay type: cell-based; conditions: Homo sapiens, MKN-45; MKN45, CCK-8, 72 h; read-out: IC50, cell proliferation
Method: as §2

MNK45 cell line = test: Apoptosis assay, annexin V and PI staining, flow cytometry; assay type: cell-based, human; conditions: control group 5%
Method: MHCC97H or MKN45 cells were seeded in 6-well plates (3 × 10^4 cells/well) and incubated in the presence or absence of compound 1D228, for the cell apoptosis assay, cells were harvested and incubated with 5 μL of Annexin-V/FITC (Keygen Biotech, China) in binding buffer (10 mM HEPES, 140 mM NaCl, and 2.5 mM CaCl2 at pH 7.4) at room temperature for 15 min. PI solution was then added to the medium for another 10 min-incubation. Almost 10,000 events were collected for each sample and analysed by flow cytometry (Beckman Coulter, Epics XL). For the cell cycle assay, cells were fixed in ice-cold 70% ethanol overnight. After the ethanol was removed the next day, the cells were re-suspended in ice-cold PBS, treated with RNAse A (Keygen Biotech, China) at 37 °C for 30 min, and then incubated with the DNA staining solution propidium iodide (PI, Keygen Biotech, China) at 4 °C for 30 min. Approximately 10,000 events were detected by flow cytometry (Beckman Coulter, Epics XL) at 488 nm. The data regarding the number of cells in different phases of the cell cycle were analysed using EXPO32 ADC analysis software.

T13 sequence (P07948 1-491 isoform P07948-2): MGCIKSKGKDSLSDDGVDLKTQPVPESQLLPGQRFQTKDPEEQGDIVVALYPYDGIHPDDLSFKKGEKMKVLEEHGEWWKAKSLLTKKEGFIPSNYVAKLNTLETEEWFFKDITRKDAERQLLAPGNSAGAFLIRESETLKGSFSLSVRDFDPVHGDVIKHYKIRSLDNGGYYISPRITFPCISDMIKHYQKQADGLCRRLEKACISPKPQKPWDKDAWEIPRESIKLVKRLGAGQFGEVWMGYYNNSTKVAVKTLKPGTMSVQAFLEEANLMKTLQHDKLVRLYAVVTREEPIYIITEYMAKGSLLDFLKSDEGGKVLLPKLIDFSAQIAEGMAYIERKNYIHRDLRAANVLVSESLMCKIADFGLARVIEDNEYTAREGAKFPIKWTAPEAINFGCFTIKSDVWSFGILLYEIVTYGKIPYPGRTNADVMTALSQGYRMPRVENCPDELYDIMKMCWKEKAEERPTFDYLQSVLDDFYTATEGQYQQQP
T3 sequence (Q9UF33 23-1036): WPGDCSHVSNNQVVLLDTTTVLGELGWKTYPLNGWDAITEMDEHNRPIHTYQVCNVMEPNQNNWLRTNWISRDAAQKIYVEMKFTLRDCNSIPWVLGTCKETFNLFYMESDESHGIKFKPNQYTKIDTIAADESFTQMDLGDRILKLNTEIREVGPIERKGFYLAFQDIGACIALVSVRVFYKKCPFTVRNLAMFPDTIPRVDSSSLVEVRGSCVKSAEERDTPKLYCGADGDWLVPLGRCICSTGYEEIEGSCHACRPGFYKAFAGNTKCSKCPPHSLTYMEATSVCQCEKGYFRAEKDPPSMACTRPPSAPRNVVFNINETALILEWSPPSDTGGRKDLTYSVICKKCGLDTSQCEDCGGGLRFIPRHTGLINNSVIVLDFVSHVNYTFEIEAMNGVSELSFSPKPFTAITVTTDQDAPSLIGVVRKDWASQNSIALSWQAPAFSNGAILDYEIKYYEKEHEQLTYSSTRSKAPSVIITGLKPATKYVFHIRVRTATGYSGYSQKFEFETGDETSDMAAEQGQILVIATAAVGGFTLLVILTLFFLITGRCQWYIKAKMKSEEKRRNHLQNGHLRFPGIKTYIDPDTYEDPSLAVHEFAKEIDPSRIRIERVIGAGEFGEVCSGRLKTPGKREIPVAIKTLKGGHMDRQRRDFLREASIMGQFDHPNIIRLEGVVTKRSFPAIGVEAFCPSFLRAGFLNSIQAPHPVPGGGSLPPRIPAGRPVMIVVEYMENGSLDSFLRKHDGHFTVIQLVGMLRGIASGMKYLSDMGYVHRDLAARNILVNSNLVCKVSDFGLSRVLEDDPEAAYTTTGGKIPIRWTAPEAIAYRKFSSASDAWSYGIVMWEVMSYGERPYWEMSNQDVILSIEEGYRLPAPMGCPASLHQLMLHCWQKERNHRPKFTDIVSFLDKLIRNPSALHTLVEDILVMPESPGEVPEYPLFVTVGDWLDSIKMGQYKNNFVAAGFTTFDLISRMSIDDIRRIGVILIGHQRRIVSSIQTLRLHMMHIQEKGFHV
T7 sequence (P11362 22-822): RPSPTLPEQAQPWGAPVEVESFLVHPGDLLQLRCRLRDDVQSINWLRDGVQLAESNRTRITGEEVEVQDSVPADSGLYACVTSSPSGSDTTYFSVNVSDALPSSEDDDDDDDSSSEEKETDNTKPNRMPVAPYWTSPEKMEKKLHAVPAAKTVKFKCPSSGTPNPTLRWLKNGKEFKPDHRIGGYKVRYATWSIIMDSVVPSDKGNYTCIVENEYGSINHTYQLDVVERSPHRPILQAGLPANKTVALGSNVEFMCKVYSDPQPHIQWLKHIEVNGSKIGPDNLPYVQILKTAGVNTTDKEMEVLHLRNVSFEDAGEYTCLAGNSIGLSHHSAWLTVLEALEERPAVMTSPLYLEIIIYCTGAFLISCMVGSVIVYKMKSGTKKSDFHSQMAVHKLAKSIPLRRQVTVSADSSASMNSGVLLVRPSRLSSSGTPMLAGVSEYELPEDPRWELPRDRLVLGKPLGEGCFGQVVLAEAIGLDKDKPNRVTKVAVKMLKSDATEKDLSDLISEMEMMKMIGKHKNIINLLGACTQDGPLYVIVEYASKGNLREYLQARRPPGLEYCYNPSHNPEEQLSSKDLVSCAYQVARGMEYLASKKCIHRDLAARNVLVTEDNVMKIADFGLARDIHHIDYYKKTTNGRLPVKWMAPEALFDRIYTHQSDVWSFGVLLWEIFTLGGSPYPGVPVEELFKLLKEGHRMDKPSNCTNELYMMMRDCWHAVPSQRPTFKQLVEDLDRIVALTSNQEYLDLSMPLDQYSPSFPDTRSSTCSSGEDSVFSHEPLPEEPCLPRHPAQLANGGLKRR
T1 sequence (Q9UM73 19-1620): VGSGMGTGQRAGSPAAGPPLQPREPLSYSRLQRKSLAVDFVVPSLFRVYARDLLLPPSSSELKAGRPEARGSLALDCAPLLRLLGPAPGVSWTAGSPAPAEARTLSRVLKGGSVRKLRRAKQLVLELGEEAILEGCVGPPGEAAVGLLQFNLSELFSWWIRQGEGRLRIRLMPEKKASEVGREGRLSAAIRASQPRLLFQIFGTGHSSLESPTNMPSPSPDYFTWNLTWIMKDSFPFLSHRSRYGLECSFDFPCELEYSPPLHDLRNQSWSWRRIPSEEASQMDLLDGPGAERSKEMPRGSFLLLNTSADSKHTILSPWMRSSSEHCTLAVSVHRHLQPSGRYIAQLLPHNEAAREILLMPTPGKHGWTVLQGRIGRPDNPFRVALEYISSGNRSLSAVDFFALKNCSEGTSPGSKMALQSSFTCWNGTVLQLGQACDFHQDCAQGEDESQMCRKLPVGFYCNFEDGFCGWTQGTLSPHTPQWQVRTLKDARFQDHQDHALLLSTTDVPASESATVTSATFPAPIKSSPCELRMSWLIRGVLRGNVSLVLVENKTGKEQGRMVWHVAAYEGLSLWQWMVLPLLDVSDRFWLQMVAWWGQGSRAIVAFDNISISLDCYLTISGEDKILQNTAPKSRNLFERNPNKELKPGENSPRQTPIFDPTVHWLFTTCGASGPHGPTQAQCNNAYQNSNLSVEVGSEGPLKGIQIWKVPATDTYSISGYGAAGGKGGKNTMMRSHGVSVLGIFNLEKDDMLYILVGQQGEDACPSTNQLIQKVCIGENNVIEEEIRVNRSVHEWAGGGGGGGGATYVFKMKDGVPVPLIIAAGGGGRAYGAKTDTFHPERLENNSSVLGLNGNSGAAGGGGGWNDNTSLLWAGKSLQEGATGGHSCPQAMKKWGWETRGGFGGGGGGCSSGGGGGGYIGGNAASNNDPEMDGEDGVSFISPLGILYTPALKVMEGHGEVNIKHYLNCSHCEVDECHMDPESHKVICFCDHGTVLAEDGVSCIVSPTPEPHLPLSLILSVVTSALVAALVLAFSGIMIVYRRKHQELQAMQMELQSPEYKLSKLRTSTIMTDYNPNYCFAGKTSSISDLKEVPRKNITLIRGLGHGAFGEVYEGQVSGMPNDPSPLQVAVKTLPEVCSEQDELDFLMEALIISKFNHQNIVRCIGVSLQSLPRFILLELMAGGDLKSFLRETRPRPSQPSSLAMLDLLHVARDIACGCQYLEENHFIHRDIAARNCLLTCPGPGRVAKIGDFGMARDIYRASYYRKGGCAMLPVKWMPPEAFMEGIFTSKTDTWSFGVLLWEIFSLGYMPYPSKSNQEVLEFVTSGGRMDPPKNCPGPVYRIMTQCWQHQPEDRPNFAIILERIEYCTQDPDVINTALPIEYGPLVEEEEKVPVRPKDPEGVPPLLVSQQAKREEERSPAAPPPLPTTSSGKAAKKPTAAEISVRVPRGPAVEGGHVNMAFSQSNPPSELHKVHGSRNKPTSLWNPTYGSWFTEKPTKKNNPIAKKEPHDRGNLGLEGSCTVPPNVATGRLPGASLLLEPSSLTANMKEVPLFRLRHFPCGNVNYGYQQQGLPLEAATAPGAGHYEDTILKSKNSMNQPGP
T14 sequence (O15146 24-869): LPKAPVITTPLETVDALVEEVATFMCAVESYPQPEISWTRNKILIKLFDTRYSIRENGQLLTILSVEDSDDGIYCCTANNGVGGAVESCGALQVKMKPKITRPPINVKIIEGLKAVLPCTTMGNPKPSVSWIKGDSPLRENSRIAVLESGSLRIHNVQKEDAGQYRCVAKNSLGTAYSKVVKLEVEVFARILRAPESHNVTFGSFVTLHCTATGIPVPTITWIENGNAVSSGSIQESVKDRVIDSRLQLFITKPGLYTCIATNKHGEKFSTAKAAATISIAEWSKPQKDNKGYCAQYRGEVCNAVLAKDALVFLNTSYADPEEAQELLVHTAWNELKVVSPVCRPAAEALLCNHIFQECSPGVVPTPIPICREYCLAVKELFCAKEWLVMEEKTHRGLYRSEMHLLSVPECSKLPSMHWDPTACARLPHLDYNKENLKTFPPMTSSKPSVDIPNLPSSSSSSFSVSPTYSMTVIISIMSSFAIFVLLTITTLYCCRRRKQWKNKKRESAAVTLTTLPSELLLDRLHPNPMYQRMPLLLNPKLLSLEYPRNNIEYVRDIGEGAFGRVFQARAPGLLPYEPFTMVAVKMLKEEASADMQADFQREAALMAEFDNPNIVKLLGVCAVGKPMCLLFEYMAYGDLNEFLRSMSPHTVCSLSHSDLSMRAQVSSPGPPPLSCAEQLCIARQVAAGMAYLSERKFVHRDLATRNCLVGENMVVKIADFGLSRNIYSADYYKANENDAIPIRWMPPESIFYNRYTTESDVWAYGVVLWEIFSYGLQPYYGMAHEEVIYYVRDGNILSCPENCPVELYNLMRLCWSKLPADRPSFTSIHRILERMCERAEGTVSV

**Q.** Which results are given for `[2H][C@@](C)(c1cccc(-c2ncc(OCC3CCN(C)CC3)cn2)c1)n1nc(-c2cccc(C#N)c2)ccc1=O` [1D228]?
**A.** inhibition at 0.5 µM (ALK): 89.5%; inhibition at 0.5 µM (EPHA1): -1.53%; inhibition at 0.5 µM (EPHA6): -1.78%; inhibition at 0.5 µM (EPHB1): -6.48%; inhibition at 0.5 µM (EPHB4): 5.08%; inhibition at 0.5 µM (FER): -13.3%; inhibition at 0.5 µM (FGFR1): 1.72%; inhibition at 0.5 µM (FGFR3): 3.05%; inhibition at 0.5 µM (FYN [b]): 10.9%; inhibition at 0.5 µM (INSR): 18.6%; inhibition at 0.5 µM (JAK1): 7.19%; inhibition at 0.5 µM (LYNa): 27.3%; inhibition at 0.5 µM (LYNb): 5.26%; inhibition at 0.5 µM (MUSK): 9.13%; inhibition at 0.5 µM (SRC): 2.91%; half-life ([1]; cynomolgus monkey, Macaca fascicularis liver microsome): 1650 min; half-life ([1]; mouse, CD - 1 mice liver microsome): 102 min; IC50 (ASPC1): 1330 nM; IC50 (HS746T): 890 nM; IC50 (MHCC97H): 4.3 nM; IC50 (MKN45): 1 nM; Apoptosis (MNK45 cell line; annexin V / PI staining): 53–75%; Apoptosis, times higher than in the control group (MNK45 cell line): 10–15 times
